# Measurements as given in patent US9993449B2, “(S)-3-amino-4-(difluoromethylenyl)cyclopent-1-ene-1-carboxylic acid, and related compounds as GABA aminotransferase inactivators for the treatment of epilepsy, addiction and hepatocellular carcinoma” (NORTHWESTERN UNIVERSITY, priority 2015, dated 2018).
# Entries after “also recorded” stand apart in the source; their conditions may differ. Counter-ions that a name gives are not always drawn.
# Columns and labels:
# [1] = biological target: T1, CYP1A (Homo sapiens, UniProt P05177); assay: CYP1A inhibition (HLM, phenacetin substrate); type: in vitro ADME; details: 10 μM, 10 min at 37° C.
# T1 construct: tissue Eurofins Panlabs; host or cells: human liver microsomes
# T1 sequence (P05177 1-516): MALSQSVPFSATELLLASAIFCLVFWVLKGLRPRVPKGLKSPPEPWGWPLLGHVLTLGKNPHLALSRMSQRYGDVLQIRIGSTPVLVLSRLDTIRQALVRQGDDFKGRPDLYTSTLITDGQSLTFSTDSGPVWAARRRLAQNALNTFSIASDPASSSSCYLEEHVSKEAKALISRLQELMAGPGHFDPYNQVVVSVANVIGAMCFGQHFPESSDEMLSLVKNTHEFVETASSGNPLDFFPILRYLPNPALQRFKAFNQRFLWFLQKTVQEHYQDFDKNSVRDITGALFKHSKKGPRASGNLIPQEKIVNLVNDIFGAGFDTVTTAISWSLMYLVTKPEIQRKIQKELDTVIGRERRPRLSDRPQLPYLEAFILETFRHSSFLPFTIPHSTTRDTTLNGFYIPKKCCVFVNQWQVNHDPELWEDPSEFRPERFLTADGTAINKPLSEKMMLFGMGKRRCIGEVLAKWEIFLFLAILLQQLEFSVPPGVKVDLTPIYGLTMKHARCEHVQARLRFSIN
# Procedure: (§1) Inhibition of Microsomal Cytochromes P450. The experiments were performed by Eurofins Panlabs (Redmond, Wash. 98052, USA). CYP1A inhibition (HLM, phenacetin substrate), CYP2B6 inhibition (HLM, bupropion substrate), CYP2C8 inhibition (HLM, paclitaxel substrate), CYP2C9 inhibition (HLM, diclofenac substrate), CYP2C19 inhibition (HLM, omeprazole substrate), CYP2D6 inhibition (HLM, dextromethorphan substrate), and CYP3A inhibition (HLM, midazolam and testosterone substrates) were tested. The test concentration was 10 μM. The incubation time was 10 min at 37° C. The detection method was by HPLC-MS/MS. The experiments were duplicated, and the % inhibition of the control values was averaged (FIG. 8).
# [2] = biological target: T2, CYP2C8 (Homo sapiens, UniProt P10632); assay: CYP2C8 inhibition (HLM, paclitaxel substrate); type: in vitro ADME; details: 10 μM, 10 min at 37° C.
# T2 construct: tissue Eurofins Panlabs; host or cells: human liver microsomes
# T2 sequence (P10632 1-490): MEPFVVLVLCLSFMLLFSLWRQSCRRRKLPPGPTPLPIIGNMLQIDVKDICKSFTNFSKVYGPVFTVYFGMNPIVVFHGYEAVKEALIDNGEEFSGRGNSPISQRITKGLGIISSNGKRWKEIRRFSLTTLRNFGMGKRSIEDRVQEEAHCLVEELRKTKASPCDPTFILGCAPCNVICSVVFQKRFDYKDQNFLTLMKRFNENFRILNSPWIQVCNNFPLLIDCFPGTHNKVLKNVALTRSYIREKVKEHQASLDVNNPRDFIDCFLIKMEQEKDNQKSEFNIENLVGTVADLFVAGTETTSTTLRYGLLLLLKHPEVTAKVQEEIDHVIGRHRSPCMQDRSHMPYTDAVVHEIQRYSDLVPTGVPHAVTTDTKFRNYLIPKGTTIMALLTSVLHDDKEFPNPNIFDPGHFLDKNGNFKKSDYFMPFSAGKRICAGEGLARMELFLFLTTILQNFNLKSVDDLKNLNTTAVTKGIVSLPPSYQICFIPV
# Procedure: as §1
# [3] = biological target: T3, CYP2C9 (Homo sapiens, UniProt P11712); assay: CYP2C9 inhibition (HLM, diclofenac substrate); type: in vitro ADME; details: 10 μM, 10 min at 37° C.
# T3 construct: tissue Eurofins Panlabs; host or cells: human liver microsomes
# T3 sequence (P11712 whole entry): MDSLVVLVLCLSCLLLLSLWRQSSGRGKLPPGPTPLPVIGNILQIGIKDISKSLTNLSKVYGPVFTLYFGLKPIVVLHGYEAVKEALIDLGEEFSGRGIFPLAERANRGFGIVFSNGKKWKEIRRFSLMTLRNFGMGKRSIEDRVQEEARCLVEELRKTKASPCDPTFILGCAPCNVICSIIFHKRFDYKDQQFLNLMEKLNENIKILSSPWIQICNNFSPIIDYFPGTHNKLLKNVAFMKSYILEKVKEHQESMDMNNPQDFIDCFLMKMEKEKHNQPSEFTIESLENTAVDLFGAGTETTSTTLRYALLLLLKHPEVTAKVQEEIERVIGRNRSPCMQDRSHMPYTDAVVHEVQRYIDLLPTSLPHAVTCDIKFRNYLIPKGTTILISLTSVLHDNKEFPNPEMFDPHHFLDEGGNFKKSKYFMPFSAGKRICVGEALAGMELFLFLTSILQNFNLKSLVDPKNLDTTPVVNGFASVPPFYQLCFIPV
# Procedure: as §1
# [4] = test system: glucose metabolism in the hippocampus; assay: MicroPET imaging with 18FDG: cocaine-induced increases in glucose metabolism in freely moving rats; type: in vivo, rat; details: 18FDG microPET, statistical parametric map, p<0.00001, Hydrochloride
# From the text: In addition to labeled raclopride studies, [^18F]-2′-fluoro-2′-deoxy-D-glucose (^18FDG) and microPET were also used to examine the regional effects of 1 on cocaine-induced increases in glucose metabolism. ^18FDG is an analogue of glucose that gets taken up into neurons (or any cells in the human body) just like glucose. However, after ^18FDG is phosphorylated, the corresponding 6′-phosphate cannot be further metabolized in the glycolytic pathway and remains in cells. Consequently, human PET studies have used ^18 FDG for decades to map the brain. […] When a human or a rat receives a psychostimulant like cocaine, dopamine floods the synapse, causing post-synaptic neurons to fire frantically. Because this neuronal firing requires energy in the form of glucose, the result is that brain glucose metabolism increases in specific brain regions. The effect of 1 on cocaine-induced increases in glucose metabolism in freely moving rats was determined using statistical parametric mapping, in which all of the images from the cocaine-only animals were added together and then compared to the images obtained from the same animals that received 1 and cocaine. A statistical threshold (p<0.00001) was set, and a statistical parametric map, an image showing all the pixels that were statistically different between the two conditions, was generated and then overlaid on an MRI of the rat brain (FIG. 11). […]
# [5] = biological target: T4, ornithine aminotransferase (OAT) (Homo sapiens, UniProt P04181); details: read-out: KI for inactivation of OAT
# T4 sequence (P04181 26-439): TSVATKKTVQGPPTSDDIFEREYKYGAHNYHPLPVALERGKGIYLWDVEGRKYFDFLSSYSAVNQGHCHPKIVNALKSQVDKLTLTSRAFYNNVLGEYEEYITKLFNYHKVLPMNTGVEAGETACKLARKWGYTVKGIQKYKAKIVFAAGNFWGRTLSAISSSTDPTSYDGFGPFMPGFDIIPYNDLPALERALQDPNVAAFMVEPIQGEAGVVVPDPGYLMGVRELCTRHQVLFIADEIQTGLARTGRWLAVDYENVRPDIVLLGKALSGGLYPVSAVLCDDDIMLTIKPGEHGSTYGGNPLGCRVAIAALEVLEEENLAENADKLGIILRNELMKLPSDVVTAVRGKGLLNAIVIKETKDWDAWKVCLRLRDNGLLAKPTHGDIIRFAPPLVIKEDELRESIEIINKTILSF
# Procedure: All assays were performed in duplicate, and the remaining OAT activity at each preincubation time at each inhibitor concentration was averaged. The natural logarithm of the percentage of the remaining OAT activity was plotted against the preincubation time at each inhibitor concentration to obtain the kobs (slope) value for each concentration. The kobs is the rate constant describing the inactivation at each inhibitor concentration. kobs is replotted against the inhibitor concentration using nonlinear regression analysis (GraphPad Prism 6™; GraphPad Software Inc.). KI and kinact were estimated from equation (3):
structure (smiles),measurement,setting,value
"N[C@H]1C=C(C(=O)O)CC1=C(F)F [Compound 1, (S)-3-Amino-4-(difluoromethylenyl)cyclopent-1-ene-1-carboxylic acid Hydrochloride]",inhibition or induction of CYP 1A,[1],does not inhibit or induce
same,inhibition or induction of CYP 2C8,[2],does not inhibit or induce
same,inhibition or induction of CYP 2C9,[3],does not inhibit or induce
same,cocaine-induced activation (metabolic demand) in the hippocampus,[4],attenuated; also recorded: all gone
same,KI (inactivation),[5],3.3 µM
